Patent publication US9802921B2, “Fluoromethyl-substituted pyrrole carboxamides iv” (Grünenthal GmbH, priority 2013, dated 2017)

Target: T1, Human CaV2.2 channels (Homo sapiens, UniProt Q00975)
T1 construct: expressed in transfected cells
Assay: Fluorescent assay for CaV2.2 channels using potassium depolarization to induce channel opening (FLIPR, Fluo 4)
Type: cell-based
Settings: read-out: Activity Category: %-Inhib (CaV2.2) @3 μM @30 mM KCl; 3 μM test compound; 30 mM KCl as printed; HEK293 cells stably expressing human CaV2.2
Description: In the process, the Ca^2+ influx is quantified in the FLIPR assay with the aid of a Ca^2+-sensitive dye (type Fluo-4, Molecular Probes Europe BV, Leiden, the Netherlands) in a fluorescent imaging plate reader (FLIPR 3, Molecular Devices, Sunnyvale, USA), as described hereinafter.
Human CaV2.2 channels were stably expressed in HEK293 cells together with alpha2-delta and beta subunits of voltage gated calcium channels. In addition, an inwardly rectifying potassium channel (Kir2.3) was stably expressed in these cells to augment control of the cell membrane potential by the concentration of extracellular potassium ions. Raise of the extracellular potassium concentration leads to depolarization of the membrane potential and thus regulates the voltage dependent state of CaV2.2 channels. For preparation, cells were seeded in black poly-D-lysine coated 96-well plates (Becton Dickinson, Biocoat 4640) in 100 μL medium [500 mL DMEM/F-12 plus Glutamax (Invitrogen 31331-093) plus 5.5 mL MEM NEAA 100× (Invitrogen 11140-035) plus 50 mL FBS decomplemented (Invitrogen 10270-106) plus 200 μg/mL Geneticin (Invitrogen 10131-027) plus 50 μg/mL Hygromycin B (Invitrogen 10687-010) plus 2 μg/mL Blasticidin (anti-bl5b Invivo-Gen) plus 0.2 μg/mL Puromycin (A 11138-03)] at a cell density of 30.000 cells per well. Plates were incubated at 37° C. (5% CO2) for 20 to 23 h. On the day of experiment medium was discarded and cells were loaded with Fluo 4 by addition of 100 μL of basic assay buffer (10 mM HEPES, 1 mM KCl, 149 mM NaCl, 0.8 mM CaCl2, 1.7 mM MgCl2, 10 mM Glucose, 0.1% BSA. pH 7.4) containing 2 μM Fluo 4 (Molecular Probes; F-14201), 0.01% pluronic acid (Molecular Probes; P-6866) and 2.5 mM probenecid (Molecular Probes; P36400). Cells were incubated in the dark at 25° C. for 60 min. Then dye containing buffer was discarded and 100 μL basic (1 mM KCl) or alternative (30 mM KCl) assay buffer was added. The alternative assay buffer contained altered concentrations of KCl (30 mM) and NaCl (120 mM) and was used in order to promote the inactivated channel state. After that 25 μL of basic or alternative assay buffer with or without test compound were added and cells were incubated again in the dark at 25° C. for 15 min. Fluorescence intensity was measured on a FLIPR 3 instrument (Molecular Devices Corp., Sunnyvale, Calif.) with excitation at 480 nm and emission at 535 nm. After continuously reading fluorescence for 30 sec, 50 μL of basic assay buffer containing 210 mM KCl (NaCl omitted) were added for depolarization. Peak fluorescent signal intensity was determined and the amplitude of the peak signal, normalized to base line, was used to measure channel inhibition by test compounds.

T1 sequence (Q00975 whole entry): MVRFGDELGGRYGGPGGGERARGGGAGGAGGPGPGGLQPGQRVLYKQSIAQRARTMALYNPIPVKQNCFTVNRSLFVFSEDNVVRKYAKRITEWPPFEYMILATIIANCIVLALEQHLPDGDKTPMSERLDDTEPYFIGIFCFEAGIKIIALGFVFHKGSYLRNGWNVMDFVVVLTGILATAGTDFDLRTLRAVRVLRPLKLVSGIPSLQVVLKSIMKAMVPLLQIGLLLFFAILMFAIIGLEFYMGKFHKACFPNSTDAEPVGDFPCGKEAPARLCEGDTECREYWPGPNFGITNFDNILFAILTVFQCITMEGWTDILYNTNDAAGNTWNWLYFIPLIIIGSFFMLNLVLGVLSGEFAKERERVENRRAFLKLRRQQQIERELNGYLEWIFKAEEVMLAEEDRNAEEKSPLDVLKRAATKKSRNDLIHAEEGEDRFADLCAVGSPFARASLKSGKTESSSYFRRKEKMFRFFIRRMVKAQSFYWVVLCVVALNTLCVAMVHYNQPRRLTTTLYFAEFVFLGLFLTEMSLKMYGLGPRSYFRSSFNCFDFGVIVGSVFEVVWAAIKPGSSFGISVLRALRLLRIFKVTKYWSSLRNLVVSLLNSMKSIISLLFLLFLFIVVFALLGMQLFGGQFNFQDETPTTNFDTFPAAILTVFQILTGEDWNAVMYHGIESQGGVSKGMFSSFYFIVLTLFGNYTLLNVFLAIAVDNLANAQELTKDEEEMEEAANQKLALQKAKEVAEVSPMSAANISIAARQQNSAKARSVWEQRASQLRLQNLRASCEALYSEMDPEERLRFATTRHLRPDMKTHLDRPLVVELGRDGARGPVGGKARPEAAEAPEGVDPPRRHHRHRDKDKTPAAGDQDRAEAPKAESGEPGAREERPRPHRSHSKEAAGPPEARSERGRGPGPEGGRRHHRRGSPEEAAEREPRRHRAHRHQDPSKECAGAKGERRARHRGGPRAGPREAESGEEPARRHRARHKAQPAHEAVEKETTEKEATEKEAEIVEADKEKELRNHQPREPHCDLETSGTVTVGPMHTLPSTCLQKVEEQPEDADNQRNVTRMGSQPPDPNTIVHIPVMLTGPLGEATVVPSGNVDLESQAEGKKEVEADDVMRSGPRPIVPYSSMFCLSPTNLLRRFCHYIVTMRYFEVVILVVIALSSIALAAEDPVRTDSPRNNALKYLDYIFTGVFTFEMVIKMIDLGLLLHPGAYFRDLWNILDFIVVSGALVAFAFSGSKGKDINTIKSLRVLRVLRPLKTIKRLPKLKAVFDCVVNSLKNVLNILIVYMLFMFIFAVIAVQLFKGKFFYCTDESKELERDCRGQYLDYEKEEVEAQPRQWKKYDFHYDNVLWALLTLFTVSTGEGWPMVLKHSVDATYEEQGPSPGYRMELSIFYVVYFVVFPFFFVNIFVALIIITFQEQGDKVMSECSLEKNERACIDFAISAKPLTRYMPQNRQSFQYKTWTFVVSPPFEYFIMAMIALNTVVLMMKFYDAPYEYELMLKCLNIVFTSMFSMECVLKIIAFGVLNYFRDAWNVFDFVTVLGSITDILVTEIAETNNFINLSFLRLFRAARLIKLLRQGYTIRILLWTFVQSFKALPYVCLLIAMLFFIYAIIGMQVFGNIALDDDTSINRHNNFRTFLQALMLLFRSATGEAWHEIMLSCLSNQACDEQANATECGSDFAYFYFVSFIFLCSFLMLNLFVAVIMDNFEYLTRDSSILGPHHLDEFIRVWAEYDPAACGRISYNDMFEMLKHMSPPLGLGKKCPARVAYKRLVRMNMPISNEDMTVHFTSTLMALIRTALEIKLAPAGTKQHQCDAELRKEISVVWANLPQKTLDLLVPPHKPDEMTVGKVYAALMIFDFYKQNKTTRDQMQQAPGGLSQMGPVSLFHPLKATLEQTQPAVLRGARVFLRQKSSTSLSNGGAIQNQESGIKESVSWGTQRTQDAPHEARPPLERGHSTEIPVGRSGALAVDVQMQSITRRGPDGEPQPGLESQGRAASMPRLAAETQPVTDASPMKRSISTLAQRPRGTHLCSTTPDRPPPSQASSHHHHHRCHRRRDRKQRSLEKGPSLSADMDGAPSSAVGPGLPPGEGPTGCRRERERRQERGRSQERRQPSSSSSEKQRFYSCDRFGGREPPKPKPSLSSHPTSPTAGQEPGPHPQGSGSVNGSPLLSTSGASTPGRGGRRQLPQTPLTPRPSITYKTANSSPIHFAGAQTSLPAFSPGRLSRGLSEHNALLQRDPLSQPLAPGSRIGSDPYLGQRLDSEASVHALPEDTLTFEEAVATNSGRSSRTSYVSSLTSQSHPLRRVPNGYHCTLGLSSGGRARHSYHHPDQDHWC
T1 sequence (P54289 25-1103, further chain): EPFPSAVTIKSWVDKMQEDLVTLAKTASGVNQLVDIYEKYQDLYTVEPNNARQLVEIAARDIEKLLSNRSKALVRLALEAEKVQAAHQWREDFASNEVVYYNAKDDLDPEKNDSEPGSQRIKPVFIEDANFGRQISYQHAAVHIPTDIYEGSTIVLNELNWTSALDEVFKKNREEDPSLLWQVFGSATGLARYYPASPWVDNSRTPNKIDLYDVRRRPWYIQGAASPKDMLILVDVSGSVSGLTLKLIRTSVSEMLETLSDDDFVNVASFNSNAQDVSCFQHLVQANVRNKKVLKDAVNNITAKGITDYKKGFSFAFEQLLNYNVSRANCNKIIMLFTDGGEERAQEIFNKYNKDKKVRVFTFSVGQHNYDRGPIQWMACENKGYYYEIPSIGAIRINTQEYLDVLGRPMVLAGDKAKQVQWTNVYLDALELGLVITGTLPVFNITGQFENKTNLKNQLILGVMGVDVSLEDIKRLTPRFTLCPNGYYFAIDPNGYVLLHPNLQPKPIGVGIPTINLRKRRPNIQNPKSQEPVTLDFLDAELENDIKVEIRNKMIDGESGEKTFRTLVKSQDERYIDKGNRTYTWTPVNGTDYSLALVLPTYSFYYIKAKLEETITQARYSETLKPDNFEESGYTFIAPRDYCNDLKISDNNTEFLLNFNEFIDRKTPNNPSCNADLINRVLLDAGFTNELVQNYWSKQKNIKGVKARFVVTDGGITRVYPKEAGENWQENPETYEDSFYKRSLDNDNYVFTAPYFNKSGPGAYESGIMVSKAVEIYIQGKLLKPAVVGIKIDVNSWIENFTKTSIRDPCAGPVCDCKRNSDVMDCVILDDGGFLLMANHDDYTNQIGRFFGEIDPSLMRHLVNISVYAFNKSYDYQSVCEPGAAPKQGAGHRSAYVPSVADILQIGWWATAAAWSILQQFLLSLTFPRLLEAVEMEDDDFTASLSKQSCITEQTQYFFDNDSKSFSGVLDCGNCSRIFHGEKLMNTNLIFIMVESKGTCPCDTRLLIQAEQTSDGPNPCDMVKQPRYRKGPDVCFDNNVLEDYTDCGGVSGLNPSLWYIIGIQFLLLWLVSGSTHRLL
T1 sequence (P54284 whole entry, further chain): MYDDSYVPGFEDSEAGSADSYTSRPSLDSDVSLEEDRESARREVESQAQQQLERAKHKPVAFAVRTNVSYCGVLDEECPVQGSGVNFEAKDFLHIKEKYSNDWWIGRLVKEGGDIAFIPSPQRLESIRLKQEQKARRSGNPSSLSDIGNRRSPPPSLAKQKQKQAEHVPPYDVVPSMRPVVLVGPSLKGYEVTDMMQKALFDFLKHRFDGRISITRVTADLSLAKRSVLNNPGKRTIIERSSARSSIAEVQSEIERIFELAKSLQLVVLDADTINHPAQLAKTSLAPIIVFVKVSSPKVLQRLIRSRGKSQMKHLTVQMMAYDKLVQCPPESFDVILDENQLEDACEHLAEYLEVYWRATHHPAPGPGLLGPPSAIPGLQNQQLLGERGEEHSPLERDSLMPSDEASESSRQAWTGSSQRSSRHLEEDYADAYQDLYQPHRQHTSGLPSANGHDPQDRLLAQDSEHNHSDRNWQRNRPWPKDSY

| SMILES | inhibition at 3 µM [%] |
| --- | --- |
| Cc1c(-c2ccc(Cl)cc2)c(C(=O)N(C)CC(C)(C)C)n(-c2cnccn2)c1C(F)(F)F [Example 049, 3-(4-Chlorophenyl)-N-(2,2-dimethyl-propyl)-N,4-dimethyl-1-pyrazin-2-yl-5-(trifluoromethyl)-1H-pyrrole-2-carboxylic acid amide] | 75 to 95 |
| Cc1c(-c2ccc(Cl)cc2)c(C(=O)N2CCOCC2)n(Cc2cncnc2)c1C(F)(F)F [Example 052, [3-(4-Chlorophenyl)-4-methyl-1-(pyrimidin-5-yl-methyl)-5-(trifluoromethyl)-1H-pyrrol-2-yl]-morpholin-4-yl-methanone] | 40 to 75 |
| Cc1cnc(Cn2c(C(F)(F)F)cc(-c3ccc(Cl)cc3)c2C(=O)N(C)CC(C)(C)C)cn1 [Example 030, 3-(4-Chlorophenyl)-N-(2,2-dimethyl-propyl)-N-methyl-1-[(5-methyl-pyrazin-2-yl)-methyl]-5-(trifluoromethyl)-1H-pyrrole-2-carboxylic acid amide] | > 95 |
| Cc1c(-c2ccc(Cl)cc2)c(C(=O)N2CCOCC2)n(CCn2ccccc2=O)c1C(F)(F)F [Example 055, 1-[2-[3-(4-Chlorophenyl)-4-methyl-2-(morpholine-4-carbonyl)-5-(trifluoromethyl)-1H-pyrrol-1-yl]-ethyl]-1H-pyridin-2-one] | 40 to 75 |
| Cc1noc(Cn2c(C(F)(F)F)cc(-c3ccc(F)cc3)c2C(=O)N(C)C(C)C)n1 [Example 065, 3-(4-Fluorophenyl)-N-isopropyl-N-methyl-1-[(3-methyl-[1,2,4]oxadiazol-5-yl)-methyl]-5-(trifluoromethyl)-1H-pyrrole-2-carboxylic acid amide] | 75 to 95 |
| Cc1ncc(Cn2c(C(=O)N3CCOCC3)c(-c3ccc(Cl)cc3)c(C)c2C(F)(F)F)cn1 [Example 043, [3-(4-Chlorophenyl)-4-methyl-1-[(2-methyl-pyrimidin-5-yl)-methyl]-5-(trifluoromethyl)-1H-pyrrol-2-yl]-morpholin-4-yl-methanone] | 75 to 95 |
| Cc1c(-c2ccc(Cl)cc2)c(C(=O)N2CCOCC2)n(Cn2ccccc2=O)c1C(F)(F)F [Example 056, 1-[[3-(4-Chlorophenyl)-4-methyl-2-(morpholine-4-carbonyl)-5-(trifluoromethyl)-1H-pyrrol-1-yl]-methyl]-1H-pyridin-2-one] | 75 to 95 |
| Cc1ccnc(Cn2c(C(F)(F)F)cc(-c3ccc(Cl)cc3)c2C(=O)N(C)CC(C)(C)C)n1 [Example 036, 3-(4-Chlorophenyl)-N-(2,2-dimethyl-propyl)-N-methyl-1-[(4-methyl-pyrimidin-2-yl)-methyl]-5-(trifluoromethyl)-1H-pyrrole-2-carboxylic acid amide] | > 95 |
| Cc1cnc(Cn2c(C(=O)N3CCOCC3)c(-c3ccc(Cl)cc3)c(C)c2C(F)(F)F)nc1 [Example 045, [3-(4-Chlorophenyl)-4-methyl-1-[(5-methyl-pyrimidin-2-yl)-methyl]-5-(trifluoromethyl)-1H-pyrrol-2-yl]-morpholin-4-yl-methanone] | > 95 |
| Cc1c(-c2ccc(Cl)cc2)c(C(=O)N2CCS(=O)(=O)CC2)n(Cc2cn(C)cn2)c1C(F)(F)F [Example 022, [3-(4-Chlorophenyl)-4-methyl-1-[(1-methyl-1H-imidazol-4-yl)-methyl]-5-(trifluoromethyl)-1H-pyrrol-2-yl]-(1,1-dioxo-[1,4]thiazinan-4-yl)-methanone] | 40 to 75 |
| Cc1c(-c2ccc(Cl)cc2)c(C(=O)N2CCOCC2)n(Cc2cnn(C)c2)c1C(F)(F)F [Example 023, [3-(4-Chlorophenyl)-4-methyl-1-[(1-methyl-1H-pyrazol-4-yl)-methyl]-5-(trifluoromethyl)-1H-pyrrol-2-yl]-morpholin-4-yl-methanone] | > 95 |
| Cc1c(-c2ccc(Cl)cc2)c(C(=O)N2CCOCC2)n(Cc2cn(C)nn2)c1C(F)(F)F [Example 017, [3-(4-Chlorophenyl)-4-methyl-1-[(1-methyl-1H-[1,2,3]triazol-4-yl)-methyl]-5-(trifluoromethyl)-1H-pyrrol-2-yl]-morpholin-4-yl-methanone] | 40 to 75 |
